According to ChEMBL document CHEMBL4699509, “Asaroidoxazines from the Roots of Asarum asaroides Induce Apoptosis in Human Neuroblastoma Cells” (J Nat Prod, 2020):
pIC50: −log10 of the molar value. Calls of active or inactive are those of the source. No cut-off for these calls is given here.

Assays:
SH-SY5Y [1] = test: Cytotoxicity against human SH-SY5Y cells assessed as reduction in cell viability by CCK8 assay; assay type: functional, cell-based
SH-SY5Y [2] = test: Induction of apoptosis in human SH-SY5Y cells assessed as increase in caspace-3/7 expression at 1 to 30 uM after 12 hrs by Caspase-Glo assay; assay type: functional, cell-based; conditions: dose microM 1-30, time 12.0 hrs
SH-SY5Y [3] = test: Induction of apoptosis in human SH-SY5Y cells assessed as decrease in ATP level at 30 uM by CellTiter-Glo assay relative to control; assay type: functional; design: scale not given: the % may be the effect or the level left
SH-SY5Y [4] = test: Induction of apoptosis in human SH-SY5Y cells assessed as decrease in ATP level at 1 uM by CellTiter-Glo assay relative to control; assay type: functional; design: scale not given: the % may be the effect or the level left
SH-SY5Y [5] = test: Induction of apoptosis in human SH-SY5Y cells assessed as nuclear fragmentation at 1 to 30 uM by Hoechst 33342 staining based inverted fluorescent microscopic method; assay type: functional, cell-based; conditions: dose microM 1-30
SH-SY5Y [6] = test: Induction of apoptosis in human SH-SY5Y cells assessed as nuclear condensation at 30 uM by Hoechst 33342 staining based inverted fluorescent microscopic method (reference value: 2.1%); assay type: functional
SH-SY5Y [7] = test: Induction of apoptosis in human SH-SY5Y cells assessed as nuclear condensation at 1 uM by Hoechst 33342 staining based inverted fluorescent microscopic method (reference value: 2.1%); assay type: functional
SH-SY5Y [8] = test: Induction of apoptosis in human SH-SY5Y cells assessed as nuclear condensation at 1 to 30 uM by Hoechst 33342 staining based inverted fluorescent microscopic method; assay type: functional, cell-based; conditions: dose microM 1-30

SMILES	Activity (SH-SY5Y [1])	pIC50 (SH-SY5Y [1])	Activity (SH-SY5Y [2])	Activity (SH-SY5Y [3]) [%]	Activity (SH-SY5Y [4]) [%]	Activity (SH-SY5Y [5])	Activity (SH-SY5Y [6]) [%]	Activity (SH-SY5Y [7]) [%]	Activity (SH-SY5Y [8])
COc1cc(OC)c2c(c1)-c1c3c(cc4c(=O)onc(c14)[C@H]2SCC(N)=O)OCO3	Dose-dependent effect	4.95	–	–	–	–	–	–	–
COc1ccc(OC)c2c1cc1c3c(cc4c(c32)OCO4)C(=O)N1	Dose-dependent effect	4.67	–	–	–	–	–	–	–
COc1ccc(OC)c2c1-c1c3c(cc4c(=O)onc(c14)[C@H]2SCC(N)=O)OCO3	Dose-dependent effect	5.57	Active	51.4	57.8	Active	70.9	36.8	Active
